Measured values taken from patent US20210379153A1, “COMBINATION THERAPIES COMPRISING SIRP ALPHA-BASED CHIMERIC PROTEINS” (Shattuck Labs, Inc., priority 2018, published 2021).
Values joined by “and” are separate entries in the source; they are usually repeats but may differ in a detail not shown here. Identical values can stand only once. One block for each substance: values may come before it.

Assays:
[1] = tested on: IRF-inducible ISG reporter in RAW264.7 cells; experiment: RAW264.7-ISG interferon reporter cells co-cultured with A20 lymphoma cells; type: cell-based, mouse; conditions: monotherapy; 50 mg/mL proteins, 1 mg/mL anti-mCD20; 24 hours
Method: FIG. 8D: Macrophage:Toledo lymphoma co-cultures were harvested 2 hours into phagocytosis assays in the presence of rituximab ([…]), SIRPα-Fc-CD40L ([…]), or the combination of both agents. Macrophages were isolated by CD11b+ FACS, RNA was prepared, cDNA synthesized, and gene expression (IFNa1, IFNb1, CD80, and CD86) assessed by qRT-PCR. Fold change was calculated using DDCT and values obtained from the housekeeping gene ACTB, and the corresponding values from untreated samples. […] After 2 hours, co-cultures were isolated from tissue culture vessels and were stained with a fluorescently conjugated CD11b antibody to discriminate macrophages. Cells were then assessed by flow cytometry for the co-localization of fluorescent signal from both cells types. […] After 24-hours type I interferon induced luminescence was assessed using a luminometer. The maximum luminescence (RLU) from each experiment was set to 1, and all other samples were normalized accordingly. […]
Additionally, a macrophage reporter system was used to detect activation. […] After 24 hours, culture supernatant was collected and assessed for luciferase activity, which would indicate activation of a type I interferon response in the RAW-ISG reporter cells. […]

[2] = tested on: IFNα1, IFNβ1, CD80 and CD86 expression in macrophages; experiment: qRT-PCR of macrophages sorted from macrophage:Toledo lymphoma co-cultures; type: cell-based, human; set-up: macrophage activation and type I interferon gene expression: dose or concentration left out as unconfirmed; conditions: monotherapy; 2 hours
Method: FIG. 8D: Macrophage:Toledo lymphoma co-cultures were harvested 2 hours into phagocytosis assays in the presence of rituximab ([…]), SIRPα-Fc-CD40L ([…]), or the combination of both agents. Macrophages were isolated by CD11b+ FACS, RNA was prepared, cDNA synthesized, and gene expression (IFNa1, IFNb1, CD80, and CD86) assessed by qRT-PCR. Fold change was calculated using DDCT and values obtained from the housekeeping gene ACTB, and the corresponding values from untreated samples. […] After 2 hours, co-cultures were isolated from tissue culture vessels and were stained with a fluorescently conjugated CD11b antibody to discriminate macrophages. Cells were then assessed by flow cytometry for the co-localization of fluorescent signal from both cells types. Identical assays were set up where macrophages were pre-incubated for 1 hour with 20 μg/mL of a commercially available Fc block cocktail or with 20 μg/mL of a CD40 blocking antibody or with 5 μg/mL of a calreticulin blocking peptide. FIG. 8G: RAW 264.7-Lucia ISG cells were cultured with A20 lymphoma cells in the presence of […] of mSIRPα-Fc-CD40L, recombinant Fc-mCD40L, mSIRPα-Fc, or their combination, 1 mg/mL anti-mCD20, or the combination of mSIRPα-Fc-CD40L and anti-mCD20. After 24-hours type I interferon induced luminescence was assessed using a luminometer. The maximum luminescence (RLU) from each experiment was set to 1, and all other samples were normalized accordingly. Values from repeat experiments are shown.
RNA was prepared from macrophages isolated using fluorescent activated cell sorting (FACS) from SIRPα-Fc-CD40L/Rituximab treated co-cultures macrophages and Toledo lymphoma cells. The RNA was assessed by qRT-PCR for expression of IFNα1 and IFNβ1, and the macrophage activation markers CD80 and CD86.

tumors [3] = experiment: In vivo tumor model, SIRPα-Fc-OX40L with checkpoint antibodies (Example 14); set-up: species or system mice; conditions: chimeric protein alone
Method: The in vivo ability of combinations of the SIRPα-Fc-OX40L chimeric protein with anti-CTLA-4 antibodies or the SIRPα-Fc-OX40L chimeric protein with anti-PD-1 antibodies to target and treat tumors was determined.

tumors [4] = experiment: In vivo tumor model, SIRPα-Fc-LIGHT with anti-PD-1 (Example 15); set-up: species or system mice; conditions: combination with anti-PD-1 antibody
Method: The in vivo ability of combinations of the SIRPα-Fc-LIGHT chimeric protein with anti-PD-1 antibodies to target and treat tumors was determined. (FIG. 26A and FIG. 26B) FIG. 26C and FIG. 26D include data relevant to the graphs of FIG. 26A and FIG. 26B.

FcγR-Ia = FcγR-Ia (Homo sapiens, UniProt P12314); experiment: SPR binding to Fc receptor FcγR-Ia
Excerpt: Scale is shown and yellow arrows correspond with each identified monomer. A schematic of the hexamer species is shown to the right, depicting dimerization of the Fc domain and trimerization of the CD40L domain. […] Recombinant hSIRPα-Fc, hCD40L-Fc, and hIgG1 were used as positive controls. […] In both panels, the CHOK1 Parental is on the left and the CHOK1/hCD47 is on the right. […] For both graphs, the CHOK1 Parental is on the bottom. […] In this figure, the control is the top curve, the SIRPα-Fc-CD40L is the middle curve, and the anti-CD47 is the bottom curve.
The extracellular domain (ECD) of SIRPα and the ECD of CD40L were fused via an antibody Fc domain to generate SIRPαECD-Fc-CD40LECD chimeric proteins. When human proteins were used, the chimeric protein is referred to as hSIRPα-Fc-CD40L; when murine proteins were used, the chimeric protein is referred to as and mSIRPα-Fc-CD40L. […] The purified protein was then analyzed for the presence of each individual domain by Western blotting using anti-SIRPα, anti-Fc, and anti-CD40L antibodies (FIG. 3A, bottom). […] Next, binding affinities for SIRPα-Fc-CD40L to recombinant CD47, CD40, or Fc receptors were evaluated by surface plasmon resonance (SPR). […] A functional ELISA evaluated whether SIRPα-Fc-CD40L could outcompete a commercially available single-sided SIRPα-Fc control for binding to recombinant CD47 (FIG. 3H).

FcγR-IIb = target: T1, FcγR-IIb (Homo sapiens, UniProt P31994); experiment: SPR binding to Fc receptor FcγR-IIb
T1 sequence (P31994 43-310): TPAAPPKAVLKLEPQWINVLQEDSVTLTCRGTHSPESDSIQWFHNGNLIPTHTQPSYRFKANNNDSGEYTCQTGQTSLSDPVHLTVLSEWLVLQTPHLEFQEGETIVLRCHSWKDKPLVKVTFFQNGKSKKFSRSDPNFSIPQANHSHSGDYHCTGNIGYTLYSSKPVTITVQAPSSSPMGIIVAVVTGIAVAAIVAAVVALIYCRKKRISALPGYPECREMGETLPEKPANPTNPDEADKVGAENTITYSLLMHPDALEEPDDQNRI
Excerpt: (§1) The extracellular domain (ECD) of SIRPα and the ECD of CD40L were fused via an antibody Fc domain to generate SIRPαECD-Fc-CD40LECD chimeric proteins. When human proteins were used, the chimeric protein is referred to as hSIRPα-Fc-CD40L; when murine proteins were used, the chimeric protein is referred to as and mSIRPα-Fc-CD40L. Generically, the chimeric protein is referred to as SIRPα-Fc-CD40L. […] Mammalian cells were then transfected with the hSIRPα-Fc-CD40L expressing construct, and the secreted protein was purified from conditioned media by affinity chromatography. The purified protein was then analyzed for the presence of each individual domain by Western blotting using anti-SIRPα, anti-Fc, and anti-CD40L antibodies (FIG. 3A, bottom). […] The reduced and deglycosylated form of the protein migrated at the predicted monomeric molecular weight of 90.1 kDa. […] Next, binding affinities for SIRPα-Fc-CD40L to recombinant CD47, CD40, or Fc receptors were evaluated by surface plasmon resonance (SPR). […] Finally, to confirm that SIRPα-Fc-CD40L interacted with native CD47 and CD40 in a similar manner to recombinant CD47 and CD40, CHOK1-hCD47 and CHOK1-hCD40 reporter cell lines were developed (FIG. 3F). […] A functional ELISA evaluated whether SIRPα-Fc-CD40L could outcompete a commercially available single-sided SIRPα-Fc control for binding to recombinant CD47 (FIG. 3H).

FcγR-IIIb = FcγR-IIIb (Homo sapiens, UniProt O75015); experiment: SPR binding to Fc receptor FcγR-IIIb
Excerpt: as §1

[5] = tested on: CD8+ T cell-depleted PBMC; experiment: IL-2 ELISpot of CD8+ T cell-depleted PBMC; type: cell-based, human; conditions: day 8 of the culture
Method: (§2) Here, proliferation was assessed via [^3H]-Thymidine incorporation on days 5, 6, and 7. The order of samples (in triplicate) along the X-axis is media only, KLH, Exenatide, 0.3 nm SIRPα-Fc-CD40L, 3 nm SIRPα-Fc-CD40L, 30 nm SIRPα-Fc-CD40L and 300 nm SIRPα-Fc-CD40L. […] Here, proliferation was assessed by ELISpot. The order of samples (in triplicate) along the X-axis is media only, KLH, Exenatide, 0.3 nm SIRPα-Fc-CD40L, 3 nm SIRPα-Fc-CD40L, 30 nm SIRPα-Fc-CD40L and 300 nm SIRPα-Fc-CD40L.
(§3) The observation that SIRPα-Fc-CD40L stimulated CD40 signaling prompted investigation of other cellular functions that depend upon CD40 signaling. CD8+ T cell-depleted PBMC were isolated from a total of 33-50 different human donors and cultured in the presence of a dose-titration of hSIRPα-Fc-CD40L (FIG. 6A and FIG. 6B).

[6] = tested on: CD8+ T cell-depleted PBMC; experiment: Proliferation of CD8+ T cell-depleted PBMC ([3H]-thymidine); type: cell-based, human; conditions: 0.3, 3, 30, or 300 nM; 7-day culture; 33-50 donors
Method: as §2, §3

[7] = Repeat-dose safety and activity study in cynomolgus macaques; type: in vivo; conditions: IV infusion weekly for five weeks; 0.1, 1, 10 and 40 mg/kg
Method: FIG. 21 is a graph showing cynomolgus macaques that were treated with vehicle, or 0.1, 1, 10, and 40 mg/kg of SIRPα-Fc-CD40L. Blood chemistry analysis assessed peripheral erythrocyte counts, hemoglobin levels, and hematocrit. In addition, the fold-change in lymphocyte count from pre-dose to 24 hours post-dose is shown.
The experiments of this example tested the safety and activity of the human SIRPα-Fc-CD40L chimeric protein following repeat doses in cynomolgus macaques. Briefly, naïve cynomolgus macaques were administered the human SIRPα-Fc-CD40L chimeric protein by intravenous infusion every week, for five consecutive weeks, at doses of 0.1, 1, 10 and 40 mg/kg. Standard hematology and clinical chemistry parameters were collected before and after each dose.
Receptor occupancy was evaluated on circulating CD40+ lymphocytes.

[8] = target: T2, recombinant mouse CD47 (mouse) (UniProt Q61735); experiment: dual ELISA: coat mCD47-Fc, detect mCD40-His, tertiary anti-his-HRP, OD450
T2 sequence (looked up): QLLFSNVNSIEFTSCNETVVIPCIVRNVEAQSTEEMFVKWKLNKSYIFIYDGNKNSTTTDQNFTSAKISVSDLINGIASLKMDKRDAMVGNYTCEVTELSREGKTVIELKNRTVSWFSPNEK

Sequence of FcγR-Ia (P12314 16-374): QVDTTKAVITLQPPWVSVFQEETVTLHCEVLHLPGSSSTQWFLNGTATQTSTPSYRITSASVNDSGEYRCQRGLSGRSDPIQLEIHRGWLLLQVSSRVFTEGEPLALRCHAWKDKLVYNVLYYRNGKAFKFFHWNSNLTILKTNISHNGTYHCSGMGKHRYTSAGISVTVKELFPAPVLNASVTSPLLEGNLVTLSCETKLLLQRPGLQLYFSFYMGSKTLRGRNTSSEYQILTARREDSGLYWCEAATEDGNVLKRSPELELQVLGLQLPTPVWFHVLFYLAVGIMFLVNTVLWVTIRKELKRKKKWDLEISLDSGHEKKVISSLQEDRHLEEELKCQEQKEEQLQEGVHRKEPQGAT
Sequence of FcγR-IIIb (O75015 17-200): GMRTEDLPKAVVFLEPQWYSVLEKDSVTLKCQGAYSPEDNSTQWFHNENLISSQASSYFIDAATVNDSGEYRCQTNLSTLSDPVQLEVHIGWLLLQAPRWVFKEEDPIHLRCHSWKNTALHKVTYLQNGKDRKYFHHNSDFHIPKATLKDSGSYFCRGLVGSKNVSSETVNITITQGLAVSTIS

Substance: SIRPα-Fc: recombinant single-sided SIRPα-Fc protein [reference compound]
- interferon gene-driven luciferase activity (type I IFN response) [1]: no significant signal

Substance: rituximab: anti-CD20 antibody [reference compound]
- macrophage activation and type I interferon gene expression [2]: induced macrophage activation and the expression of type I interferon genes

Substance: SIRPα(CD172a)-Fc-OX40L: ECD of SIRPα and ECD of OX40L fused via an antibody Fc domain (SEQ ID NO: 61)
- survival (tumors [3]): any survivors by the sixteenth day
- tumor size (tumors [3]): effective in reducing tumor size

Substance: SIRPα(CD172a)-Fc-LIGHT: ECD of SIRPα, hinge-CH2-CH3 Fc linker and ECD of LIGHT (SEQ ID NO: 63)
- survival (tumors [4]): any survivors by the twenty-fifth day
- tumor size (tumors [4]): most effective in reducing tumor size
- rejection of secondary tumor challenge (tumors [4]; no additional treatment): 66.6%

- binding (FcγR-Ia): undetectable binding
- binding (FcγR-IIb): undetectable binding
- binding (FcγR-IIIb): undetectable binding
Substance: hSIRPα-Fc-CD40L: chimeric protein: ECD of human SIRPα fused via an antibody Fc domain to ECD of human CD40L (SEQ ID NO: 60)
- number of IL-2-secreting PBMC [5]: dose-dependent increase
- proliferation of human PBMC [6]: dose-dependent proliferation
- hemolysis [7]: no evidence
- thrombocytopenia [7]: no evidence

- EC50 [8]: 7.37 nM and 8.73 nM
Substance: mSIRPα-Fc-CD40L chimeric protein (murine SIRPα ECD - Fc - murine CD40L ECD) (from UniProt P97797 32-373; P27548 47-260) (Fc fusion)
